“Also recorded” adds a separate entry of the source.
Key:
[1] = test system: Panc-1; test: MTT cell viability assay; type: cell-based
Experimental: 1.1. ZPP and Y29794 induces cytotoxicity to cancer cells by MTT analysis of cell viability. Cells were placed in 96-well plates (3×10^3 cells/well) in octuplicate. The cells were then treated with vehicle or different doses of ZPP for 4 days. Cells were then loaded with 1.2 mM MTT (4,5-Dimethylthiazol-2-vn-2,5-diphenvltetrazolium bromide, a yellow tetrazole) in phenol red-free medium for 4 hours. The cells were then lysed in 10% SDS/0.01M HCL. MTT absorbance (570 nm spectrum) was measured by a microplate reader. The relative absorbance is normalized to the control (vehicle-treated) to indicate relative cell viability. ZPP was purchased from Biomol (Plymouth Meeting, Pa., USA). MTT was purchased from Sigma-Aldrich. Panc-1 and Capan-1 pancreatic cancer cell line, MCF7 and T47D breast cancer cell lines, A549 and HI 703 lung cancer Cell lines were purchased from American Type Culture Collection (ATCC, USA) preparation of pancreatic cancer cell line PK-9 have been disclosed, e.g., Kobari M et al, (1986) Tohoku J Exp Med. 150: 231-248; Etoh T et al, (2003) Clin Cancer Res 9; 1218; Arafat H. et al, (2011) Surgery 150 (2): 306-315. Cells were grown in Dulbecco's Modified. Eagle's (DMEM) medium (Invitrogen, Carlsbad, Calif.) containing 10% fetal bovine serum (FBS) (Hyclone, purchased from Thermo Fisher Scientific, Inc). […] […] Y29794 oxalate was purchased from Tocris Biosciences (Bristol, UK).

[2] = test system: Panc-1 tumor; test: Xenotransplanted Panc-1 pancreatic tumor growth in SCID mice; type: in vivo, SCID mice (BALB/C)
Experimental: 4-6 week-old male SCID mice (BALB/C) were purchased from Charles River laboratories (Wilmington, Mass., USA). Pane-1 cells at about 80% confluence were trypsinized with 0.25% trypsin and 0.02% EDTA. The cell suspension was centrifuged after addition of 10% FBS. 10^6 cells were resuspended in 100 μl PBS buffer containing 10% Matrigel, and injected with a 1-cc syringe with a 27-30 sized needle into the right flank of nude mice under anesthesia. After tumor formation (mean volume 50-60 mm^3) the mice were randomly divided into four groups (6 mice per group): control group, rapamycin treatment group, Y29794 treatment group, and Y29794 plus rapamycin treatment group. Rapamycin and Y29794 were dissolved in Cremophor formulation (20% Cremophor EL, 30% propylene glycol, 50% ethanol). Rapamycin (2 mg/kg body weight) was given by intraperitoneal injection one dose per week. Y29794 (20 mg/kg body weight) was administered by gavage five doses a week. Weekly measurements of tumor size (length, width and depth) and calculation of the tumor volume (½ larger diameter×(smaller diameter)) were carried until the control tumors reached 1000 mm^3.

CC(C)c1ccc(C(=O)c2cccs2)c(SCCCCCCCCN(C)C)n1 [Y29794, [2-[8-(dimethylamino)octylsulfanyl]-6-propan-2-ylpyridin-3-yl]-thiophen-2-ylmethanone]
MTT absorbance (relative cell viability) ([1]; Panc-1, different doses, 4 days): dose-dependent cytotoxicity
cell viability (MTT), combination ([1]; Panc-1, various concentration of Y29794 with 0.5 nM rapamycin, three days (FIG. 16A legend)): synergistic reduction
cell viability (MTT), combination ([1]; Panc-1, various concentration of rapamycin with 25 nM Y29794, three days (FIG. 16B legend)): synergistic reduction
tumor growth (tumor volume), combination ([2]; Y29794 20 mg/kg by gavage five doses a week plus rapamycin 2 mg/kg intraperitoneal one dose per week): synergistic effect; also recorded: inhibited tumor growth (P<0.01) more than Y29794 alone
tumor growth (tumor volume) ([2]; Y29794 alone, 20 mg/kg by gavage five doses a week, vs control group, 20 mg/kg): significantly reduces; also recorded: significantly inhibited

— patent US9750728B2, “Method and pharmaceutical composition for inhibiting PI3K/AKT/mTOR signaling pathway” (TARGETED THERAPEUTICS, LLC, priority 2012, dated 2017)
